Data published in paper PMC7615677 (Science translational medicine, 2023).
Entries after “also recorded” stand apart in the source; their conditions may differ. Read-outs that look alike come from different tables or passages of the source.

Assays:
[1] = test system: L. donovani axenic amastigotes; test: Drug sensitivity assay, axenic amastigotes; format: cell-based; settings: Leishmania donovani
Description: The clonal L. donovani cell line LdBOB (derived from MHOM/SD/62/1S-CL2D) was grown as promastigotes at 28°C and as axenic amastigotes at 37°C, as described previously ([25]).
To examine the effects of test compounds on growth in 96-well plates, promastigote or axenic amastigote cultures seeded at 5 × 10^4 parasites mL^–1 were incubated in the presence of 2-fold serial dilutions of test compounds for 72 h. Following incubation, 50 μM resazurin was added to each well and fluorescence (excitation of 528 nm and emission of 590 nm) measured after a further 3 h incubation.

[2] = In vitro metabolism, liver microsomes; format: in vitro ADME; settings: Rat
Description: Compounds were spiked into microsomal matrix prepared in 0.1 M pH 7.4 phosphate buffer containing magnesium chloride (final concentration of 3.3 mM), equilibrated for 5-10 min at 37°C. The reaction was initiated with the addition of freshly prepared solution of NADPH (final 1.3 mM). Control samples without co-factor were included for comparison. Aliquots of the reaction mixtures were taken periodically over 60 min and quenched with acetonitrile containing internal standards (metolazone and diazepam). Quenched samples were maintained on ice for approximately 20-30 min, centrifuged (for 5 min) and the supernatant was analyzed by LC-MS.
In vitro intrinsic clearance (CLint, μL/min/mg or μL/min/10^6 cells) values were calculated from the apparent first order degradation rate constant divided by the microsome concentration or the hepatocyte cell number (10^6 viable cells/mL). In vitro CLint values were then divided by the fraction unbound in the in vitro test system (to give CLint,u) and scaled to in vivo values (mL/min/kg) using published physiological scaling factors ([28]). Blood clearance in each species was then calculated using the well-stirred model of hepatic extraction (equation 2) where Q is the hepatic blood flow and fu,blood is calculated from fu,plasma/B:P: [2] PredictedCLblood=Q x fu,blood x CLint,u/Q+fu,blood x CLint,u […]

[3] = In vitro metabolism, cryopreserved hepatocytes; format: in vitro ADME, rat
Description: Cell viability was determined using trypan blue exclusion. The incubation was performed on a plate shaker (Heidolph Titrimax 100, 900 rpm) placed in a humidified incubator (37°C, 7.5% CO2) for 240 min. The reaction was initiated with the addition of compound with samples taken periodically and quenched with the addition of acetonitrile containing internal standards (metolazone and diazepam). Quenched samples were maintained on ice for approximately 20-30 min, centrifuged (for 5 min) and the supernatant analyzed by LC-MS.
In vitro intrinsic clearance (CLint, μL/min/mg or μL/min/10^6 cells) values were calculated from the apparent first order degradation rate constant divided by the microsome concentration or the hepatocyte cell number (10^6 viable cells/mL). In vitro CLint values were then divided by the fraction unbound in the in vitro test system (to give CLint,u) and scaled to in vivo values (mL/min/kg) using published physiological scaling factors ([28]). Blood clearance in each species was then calculated using the well-stirred model of hepatic extraction (equation 2) where Q is the hepatic blood flow and fu,blood is calculated from fu,plasma/B:P: [2] PredictedCLblood=Q x fu,blood x CLint,u/Q+fu,blood x CLint,u
Blood clearance values were converted to plasma clearance by multiplying by the B:P.

L. infantum = test: PK/PD analysis of liver burden versus cumulative unbound AUC; format: in vivo, mice; settings: Mouse – L. infantum; estimated using the fitted parameters
Text: To determine the correlation between the pharmacokinetic (PK) and pharmacodynamic (PD) data, repeat dose profiles in mice and hamsters following single and twice daily dosing were simulated using the fitted parameters.
Other parameters were less well correlated to efficacy, presumably given that none reflect the cumulative exposure profile with an extended treatment regimen. […] Results for mice infected with L. donovani were similar to those for L. infantum (Table S15).

hERG potassium channel = biological target: T1, hERG potassium channel (Homo sapiens, UniProt Q12809); test: hERG channel test (Qpatch / Qube); format: cell-based; settings: CHO cells stably expressing hERG potassium channels, Qpatch hERG (Fig. S15)
T1 construct: host or cells: Chinese hamster ovary cells
Description: Two concentrations (1 and 30 μM, two replicates each) were tested at room temperature.

[4] = In vitro cytotoxicity assay; format: cell-based; settings: human, THP1 human monocytic leukaemia cells
CHO-K1 cells = test: In vitro micronucleus assay; format: cell-based; settings: absence or presence of rat liver S9
Description: The treatment time was 24 h without metabolic activation (rat liver S9) and 3 h with activation. The positive controls were bleomycin sulfate and cyclophosphamide, respectively.

[5] = biological target: T2, alpha1A Human Adrenoceptor GPCR (Homo sapiens, UniProt P35348); test: α1A antagonism IC50 determination; format: cell-based
T2 construct: Eurofins (contract assay)
Text: Listed values represent the percent change relative to the DMSO control activity. When an IC50 had to be determined, eight different concentrations were included. All values are the mean of assay readout duplicates.

[6] = Seahorse mitochondrial stress test; format: cell-based; settings: human, HepG2 cells; read-out: OCR Basal AC50
Description: (§1) Seahorse® 96 well plates were seeded with HepG2 cells and incubated overnight (37°C, 5% CO2). The media in all plate wells was then replaced with Seahorse® assay media and the plates were incubated (37°C, CO2 free) for a further 1 hour before placing in the Seahorse® XFe96 analyser (Agilent Technologies Inc, USA). […] OCR and ECAR were measured for 45 minutes before the sequential addition of oligomycin (ATP synthase inhibitor), FCCP (carbonyl cyanide 4-(trifluoromethoxy) phenylhydrazone, protonophore uncoupler) and rotenone plus antimycin A (Electron transport chain Complex I and III inhibitors respectively). Multiple measurements of OCR and ECAR were made following each of these additions.
(§2) Mean ± standard deviation of the compound ratio data were plotted vs log concentration and curves fitted (as described in [24]) and the minimum effective concentration (MEC) determined using limits based on the DMSO vehicle mean ± 2 standard deviations or, where these limits were deemed too narrow, the DMSO vehicle mean ± minimum limits set for each parameter. The AC50 was calculated using the curve and historical maximum (activation) and minimum (inhibition) responses and is defined as the concentration at which 50% of the maximum or minimum effect is observed, provided a clear concentration response relationship is seen.

HepG2 cells = test: Seahorse mitochondrial stress test; format: cell-based
Description: as §1, §2

[7] = Reaction phenotyping with chemical CYP inhibitors; format: in vitro ADME; settings: human liver microsomes
Description: Other aspects of the incubation and analysis were as described above.

In vivo pharmacokinetics = test: In vivo pharmacokinetics; parameters: species or system female BALB/c mice; settings: for AUC(0-t) / AUC / Cmax / Cmax at 5 days: mice, 5 days; for AUC(0-t): read-out: AUC0-24 (first dose); for AUC: read-out: AUC96-120 (last dose); for Cmax: read-out: Cmax (first dose); for Cmax at 5 days: read-out: Cmax (last dose)
in vivo = settings: both, Wistar Han, rat, po
Description: Parameters monitored included morbidity/mortality, clinical signs, body weight, food consumption, hematology and serum clinical chemistry. Main study animals were killed on the day after the last dose and necropsied. Selected organs were weighed. Organ/tissue samples were fixed and preserved at necropsy. Following the macroscopic examination, selected organs/tissues were examined histopathologically and compared to the control group. Satellite animals were sampled for toxicokinetics on days 1 and 14, at various time-points after treatment.

[8] = female, BALB/c, mouse, plasma, oral 3.6 mg/kg bid
[9] = female, BALB/c, mouse, plasma, oral 7.1 mg/kg bid
[10] = female, BALB/c, mouse, plasma, oral 12.5 mg/kg bid

T1 sequence (Q12809 whole entry): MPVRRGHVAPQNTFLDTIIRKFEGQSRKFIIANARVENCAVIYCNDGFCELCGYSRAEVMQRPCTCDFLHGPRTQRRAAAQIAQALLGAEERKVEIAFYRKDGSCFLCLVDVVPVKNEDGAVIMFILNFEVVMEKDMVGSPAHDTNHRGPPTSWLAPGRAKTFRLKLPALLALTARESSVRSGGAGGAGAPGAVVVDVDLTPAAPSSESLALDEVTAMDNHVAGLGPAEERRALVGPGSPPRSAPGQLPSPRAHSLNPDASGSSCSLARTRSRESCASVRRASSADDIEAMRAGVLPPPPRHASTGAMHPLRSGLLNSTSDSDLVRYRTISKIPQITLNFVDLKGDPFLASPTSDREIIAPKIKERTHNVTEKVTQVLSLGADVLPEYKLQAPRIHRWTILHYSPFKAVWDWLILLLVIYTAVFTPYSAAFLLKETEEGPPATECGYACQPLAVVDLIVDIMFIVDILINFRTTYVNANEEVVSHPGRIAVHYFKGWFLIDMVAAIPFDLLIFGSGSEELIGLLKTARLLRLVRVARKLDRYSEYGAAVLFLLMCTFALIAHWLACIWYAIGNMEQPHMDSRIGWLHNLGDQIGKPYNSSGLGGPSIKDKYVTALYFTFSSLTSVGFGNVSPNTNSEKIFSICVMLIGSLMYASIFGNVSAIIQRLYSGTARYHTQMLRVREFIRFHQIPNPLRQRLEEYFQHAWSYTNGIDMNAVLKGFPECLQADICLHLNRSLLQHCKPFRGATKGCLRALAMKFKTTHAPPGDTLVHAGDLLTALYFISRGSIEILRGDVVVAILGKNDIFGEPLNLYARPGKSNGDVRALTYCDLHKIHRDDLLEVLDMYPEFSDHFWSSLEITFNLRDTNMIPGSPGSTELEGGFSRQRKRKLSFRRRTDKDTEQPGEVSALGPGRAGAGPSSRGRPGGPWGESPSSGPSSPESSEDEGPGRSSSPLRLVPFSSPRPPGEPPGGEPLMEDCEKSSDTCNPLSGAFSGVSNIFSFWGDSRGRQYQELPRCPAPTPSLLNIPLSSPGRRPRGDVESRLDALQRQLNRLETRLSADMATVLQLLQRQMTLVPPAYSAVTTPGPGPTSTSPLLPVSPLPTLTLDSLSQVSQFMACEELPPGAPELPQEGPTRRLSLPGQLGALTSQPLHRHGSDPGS
T2 sequence (P35348 whole entry): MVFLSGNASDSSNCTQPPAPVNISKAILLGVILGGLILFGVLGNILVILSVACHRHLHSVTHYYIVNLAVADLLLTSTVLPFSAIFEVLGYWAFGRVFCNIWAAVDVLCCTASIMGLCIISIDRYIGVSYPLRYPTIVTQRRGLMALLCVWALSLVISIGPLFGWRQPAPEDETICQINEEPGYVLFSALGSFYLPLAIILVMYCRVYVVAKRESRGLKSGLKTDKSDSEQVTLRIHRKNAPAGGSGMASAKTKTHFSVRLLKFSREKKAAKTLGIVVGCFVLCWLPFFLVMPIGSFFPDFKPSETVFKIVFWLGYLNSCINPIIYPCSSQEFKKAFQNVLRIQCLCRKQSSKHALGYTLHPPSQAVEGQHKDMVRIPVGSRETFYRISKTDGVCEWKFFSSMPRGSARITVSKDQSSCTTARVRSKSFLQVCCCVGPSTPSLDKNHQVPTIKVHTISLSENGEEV

Cc1[nH]c2nc(N)nc(C)c2c1-c1ccc(C#N)c2c1OCO2 [DNDI-6174]
EC50 [1]: 0.075 ± 0.002 µM | Microsome predicted in vivo CLplasma [2]: 2.4 mL/min/kg | microsomal CLint at 0.5 µM ([2]; liver microsomes, pH 7.4, 2 independent experiments, read-out: In vitro Microsome CLint): 10 ± 0.79 µL/min/mg | Hepatocyte predicted in vivo CLplasma ([3]; Rat): 2.7 mL/min/kg | hepatocyte CLint at 0.5 µM ([3]; rat, cryopreserved hepatocytes): 5.3 ± 0.19 µL/min/1e6 cells | unbound ED95 (L. infantum): 27 | IC50 (hERG potassium channel): 31.6 µM | CC50 [4]: > 50 µM | genotoxicity, in words (CHO-K1 cells): not genotoxic | IC50 [5]: 12.8 µM | AC50 at 45 min [6]: > 200 µM | OCR Basal minimum effect concentration (MEC) (HepG2 cells): 95.6 µM | Reserve Capacity, ECAR, Maximum Capacity, ATP production, in words (HepG2 cells): No significant response observed on reserve; also recorded: no changes in Reserve Capacity, ECAR, Maximum Capacity or ATP production | margin of Seahorse OCR MEC over free concentration at predicted human therapeutic plasma Cmax (HepG2 cells): approximately 187 fold | ECAR, in words (HepG2 cells; 200 μM): transient increase | OCR Basal maximum reduction (HepG2 cells; 200 μM): 14% | CLint in absence or presence of CYP isoform inhibitors, in words [7]: no significant difference in the CLint values in the absence or presence of inhibitors | increase in Cmax over the 5-day dosing period (In vivo pharmacokinetics; bid dosing in mice): approximately 2 fold | clearance (In vivo pharmacokinetics; female, BALB/c, mouse, plasma, iv, 2 mg/kg, Mouse, read-out: Measured in vivo CLplasma): 7.5 mL/min/kg | AUC(0-t) (In vivo pharmacokinetics; [8]): 10600 ng·h/mL | AUC (In vivo pharmacokinetics; [8]): 15700 ng·h/mL | Cmax (In vivo pharmacokinetics; [8]): 600 ng/mL | Cmax at 5 days (In vivo pharmacokinetics; [8]): 1350 ng/mL | AUC(0-t) (In vivo pharmacokinetics; [9]): 35500 ng·h/mL | AUC (In vivo pharmacokinetics; [9]): 37000 ng·h/mL | Cmax (In vivo pharmacokinetics; [9]): 1930 ng/mL | Cmax at 5 days (In vivo pharmacokinetics; [9]): 3040 ng/mL | AUC(0-t) (In vivo pharmacokinetics; [10]): 94500 ng·h/mL | AUC (In vivo pharmacokinetics; [10]): 93300 ng·h/mL | Cmax (In vivo pharmacokinetics; [10]): 3830 ng/mL | Cmax at 5 days (In vivo pharmacokinetics; [10]): 6810 ng/mL | AUC(0-inf) (In vivo pharmacokinetics; female, BALB/c, plasma, Mouse, intravenous 2.0 mg/kg, read-out: Plasma AUC0-inf): 4470 ng·h/mL | half-life (In vivo pharmacokinetics; female, BALB/c, plasma, Mouse, oral 25 mg/kg, read-out: Apparent t1/2 (converted)): 3.7 h | AUC(0-inf) (In vivo pharmacokinetics; female, BALB/c, plasma, Mouse, oral 25 mg/kg, read-out: Plasma AUC0-∞): 75500 ng·h/mL | NOAEL at 14 days (in vivo): 80 mg/kg
